Patent US20160264593A1 (priority 2013, published 2016)
“And” between values parts separate entries of the source, which are not always exact repeats. Equal entries are not always repeated. “Also recorded” adds a separate entry of the source. Where two headings read alike, the source gives them in different places.

Tests used:
PP2A [1] = assay: PP2A activity in mouse brains after IP dosing (PP2A immunoprecipitation phosphatase assay, malachite green); type: in vivo, Balb/c mice; details: for Average Conc. (group of 3 mice) / Average Relative Activity (group, vehicle = 100) / Conc. (phosphate, single reading, per mouse) / Mean Conc. (per mouse) / Mean Conc. less IgG blank (per mouse) / Relative Conc. (per mouse, to vehicle) / Relative PP2A Activity (per mouse, vehicle = 100): brain; for PP2A activity in brains as compared with vehicle: high doses IP
Procedure, shortened: (§1)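 Female Balb/c mice (6-8 weeks) were dosed IP with compound in 4% sodium bicarbonate; brain and liver were harvested 3 h and 6 h post-dose. PP2A was immunoprecipitated from 240 μg lysate with anti-PP2A, using normal IgG as control. Phosphatase activity on a threonine phosphopeptide was read by malachite green absorbance against a phosphate standard curve.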

PP2A [2] = assay: PP2A activity in mouse livers after IP dosing (PP2A immunoprecipitation phosphatase assay, malachite green); type: in vivo, Balb/c mice; details: for Average Conc. (group of 3 mice) / Average Relative Activity (group, vehicle = 100) / Conc. (phosphate, single reading, per mouse) / Mean Conc. (per mouse) / Mean Conc. less IgG blank (per mouse) / Relative Conc. (per mouse, to vehicle) / Relative PP2A Activity (per mouse, vehicle = 100): liver
Procedure, shortened: as §1

[3] = test system: glioblastoma (U-87) cells; assay: WST cell viability assay, U-87 MG; type: cell-based; details: Homo sapiens, U-87 MG
[4] = test system: breast cancer (2LMP) cells; assay: WST cell viability assay, 2LMP
Source text: IC50 values were obtained for cytotoxicity against breast cancer (2LMP), glioblastoma (U-87) and lung cancer (A549) cells (See Table 5 and FIGS. 3-5).

lung cancer (A549) cells = assay: WST cell viability assay, A549; type: cell-based; details: Homo sapiens, A549, read-out: IC50 A549
[5] = high dose IP (mpk: 100 1.5, 113 2.2, 151 1.6, 153 1.7, 157 2.0), 3 h
[6] = high dose IP (mpk: 100 1.5, 113 2.2, 151 1.6, 153 1.7, 157 2.0), 6 h
[7] = low dose IP (mpk: 100 0.75, 113 1.1, 151 0.8, 153 0.85, 157 1.0), 3 h
[8] = low dose IP (mpk: 100 0.75, 113 1.1, 151 0.8, 153 0.85, 157 1.0), 6 h
[9] = high dose IP (mpk: 100 1.5, 113 2.2, 151 1.6, 157 2.0), 3 h
[10] = high dose IP (mpk: 100 1.5, 113 2.2, 151 1.6, 157 2.0), 6 h
[11] = read-out: IC50 U-87 MG, WST-20131017 (first value of the cell)
[12] = read-out: IC50 U-87 MG, WST-20131024 (second value of the cell)
[13] = read-out: IC50 2LMP, WST-20131015 (first value of the cell)
[14] = read-out: IC50 2LMP, WST-20131025 (second value of the cell)
[15] = IP, dose and time not specified

## CN1CCN(C(=O)C2C3CCC(O3)C2C(=O)O)CC1 (stereo not drawn) [Compound 100, 3-(4-methylpiperazine-1-carbonyl)-7-oxa-bicyclo[2,2,1]-heptane-2-carboxylic acid]
PP2A [1]; [5]
  Average Conc. (group of 3 mice): 1176.58
  Average Relative Activity (group, vehicle = 100): 80.09
  Conc. (phosphate, single reading, per mouse): 1090.16 and 1146.07 and 1273.56 and 1349.24 and 1116.43 and 1122.21
  Mean Conc. (per mouse): 1118.11 and 1311.40 and 1119.32
  Mean Conc. less IgG blank (per mouse): 1111.75 and 1305.03 and 1112.95
  Relative Conc. (per mouse, to vehicle): 0.77 (2×) and 0.90
  Relative PP2A Activity (per mouse, vehicle = 100): 75.68 and 88.84 and 75.76
PP2A [1]; [6]
  Average Conc. (group of 3 mice): 1430.23
  Average Relative Activity (group, vehicle = 100): 102.54
  Conc. (phosphate, single reading, per mouse): 1524.93 and 1576.74 and 1180.05 and 1223.91 and 1496.73 and 1617.23
  Mean Conc. (per mouse): 1550.84 and 1201.98 and 1556.98
  Mean Conc. less IgG blank (per mouse): 1544.47 and 1195.62 and 1550.62
  Relative Conc. (per mouse, to vehicle): 1.12 (2×) and 0.87
  Relative PP2A Activity (per mouse, vehicle = 100): 110.73 and 85.72 and 111.17
PP2A [1]; [7]
  Average Conc. (group of 3 mice): 1143.44
  Average Relative Activity (group, vehicle = 100): 77.84
  Conc. (phosphate, single reading, per mouse): 1131.61 and 1148.72 and 982.91 and 1046.54 and 1270.67 and 1318.39
  Mean Conc. (per mouse): 1140.17 and 1014.72 and 1294.53
  Mean Conc. less IgG blank (per mouse): 1133.80 and 1008.36 and 1288.16
  Relative Conc. (per mouse, to vehicle): 0.78 and 0.69 and 0.89
  Relative PP2A Activity (per mouse, vehicle = 100): 77.18 and 68.64 and 87.69
PP2A [1]; [8]
  Average Conc. (group of 3 mice): 1009.84
  Average Relative Activity (group, vehicle = 100): 72.40
  Conc. (phosphate, single reading, per mouse): 996.89 and 1024.12 and 978.81 and 1073.53 and 990.38 and 1033.52
  Mean Conc. (per mouse): 1010.51 and 1026.17 and 1011.95
  Mean Conc. less IgG blank (per mouse): 1004.14 and 1019.81 and 1005.59
  Relative Conc. (per mouse, to vehicle): 0.73 (2×) and 0.74
  Relative PP2A Activity (per mouse, vehicle = 100): 71.99 and 73.11 and 72.09
PP2A [2]; [9]
  Average Conc. (group of 3 mice): 290.15
  Average Relative Activity (group, vehicle = 100): 73.9
  Conc. (phosphate, single reading, per mouse): 340.38 and 353.99 and 282.08 and 493.05 and 279.92 and 293.74
  Mean Conc. (per mouse): 347.18 and 387.56 and 286.83
  Mean Conc. less IgG blank (per mouse): 296.81 and 337.19 and 236.46
  Relative Conc. (per mouse, to vehicle): 0.76 and 0.86 and 0.6
  Relative PP2A Activity (per mouse, vehicle = 100): 75.64 and 85.93 and 60.26
PP2A [2]; [10]
  Average Conc. (group of 3 mice): 197.91
  Average Relative Activity (group, vehicle = 100): 50.5
  Conc. (phosphate, single reading, per mouse): 154.46 and 167.2 and 290.5 and 323.97 and 262.21 and 291.36
  Mean Conc. (per mouse): 160.83 and 307.23 and 276.79
  Mean Conc. less IgG blank (per mouse): 110.45 and 256.86 and 226.41
  Relative Conc. (per mouse, to vehicle): 0.28 and 0.66 and 0.58
  Relative PP2A Activity (per mouse, vehicle = 100): 28.21 and 65.59 and 57.82
PP2A [2]; [7]
  Average Conc. (group of 3 mice): 289.29
  Average Relative Activity (group, vehicle = 100): 73.7
  Conc. (phosphate, single reading, per mouse): 292.01 and 308.85 and 318.57 and 329.58 and 359.6 and 429.35
  Mean Conc. (per mouse): 300.43 and 324.08 and 394.47
  Mean Conc. less IgG blank (per mouse): 250.06 and 273.7 and 344.1
  Relative Conc. (per mouse, to vehicle): 0.64 and 0.7 and 0.88
  Relative PP2A Activity (per mouse, vehicle = 100): 63.73 and 69.75 and 87.69
PP2A [2]; [8]
  Average Conc. (group of 3 mice): 316.5
  Average Relative Activity (group, vehicle = 100): 80.8
  Conc. (phosphate, single reading, per mouse): 391.13 and 414.88 and 358.3 and 359.17 and 328.94 and 348.8
  Mean Conc. (per mouse): 403 and 358.74 and 338.87
  Mean Conc. less IgG blank (per mouse): 352.63 and 308.36 and 288.5
  Relative Conc. (per mouse, to vehicle): 0.9 and 0.79 and 0.74
  Relative PP2A Activity (per mouse, vehicle = 100): 90.05 and 78.74 and 73.67
[3]; [11]
  IC50: 19.9 µM
[3]; [12]
  IC50: 25.2 µM
[4]; [13]
  IC50: 3.41 µM
[4]; [14]
  IC50: 6.98 µM
Lung cancer (A549) cells
  IC50: 10.3 µM

## CCCCCCCOC(=O)C1C2CCC(O2)C1C(=O)N1CCN(C)CC1 (stereo not drawn) [Compound 157, 3-(4-Methylpiperazine-1-carbonyl)-7-oxa-bicyclo[2,2,1]heptane-2-carboxylic acid heptyl ester]
PP2A [1]; [15]
  PP2A activity in the brain of mice (statement): inhibited PP2A activity
PP2A [1]; [5]
  Average Conc. (group of 3 mice): 1343.13
  Average Relative Activity (group, vehicle = 100): 54.50
  Conc. (phosphate, single reading, per mouse): 1589.30 and 1726.49 and 1634.83 and 1576.29 and 896.81 and 863.27
  Mean Conc. (per mouse): 1657.89 and 1605.56 and 880.04
  Mean Conc. less IgG blank (per mouse): 1619.87 and 1567.53 and 842.01
  Relative Conc. (per mouse, to vehicle): 0.75 and 0.72 and 0.39
  Relative PP2A Activity (per mouse, vehicle = 100): 65.72 and 63.60 and 34.16
PP2A [1]; [6]
  Average Conc. (group of 3 mice): 1748.29
  Average Relative Activity (group, vehicle = 100): 62.95
  Conc. (phosphate, single reading, per mouse): 1929.55 and 2102.31 and 1375.88 and 1308.40 and 1958.00 and 2043.77
  Mean Conc. (per mouse): 2015.93 and 1342.14 and 2000.89
  Mean Conc. less IgG blank (per mouse): 1977.90 and 1304.11 and 1962.86
  Relative Conc. (per mouse, to vehicle): 0.81 and 0.53 and 0.80
  Relative PP2A Activity (per mouse, vehicle = 100): 71.22 and 46.96 and 70.67
PP2A [1]; high dose IP, 3 h
  activity of PP2A in brains (statement): most potent; also recorded: significantly inhibited; also recorded: more effectively than compound 100
PP2A [1]; high dose IP, 6 h
  activity of PP2A in brains (statement): most potent; also recorded: significantly inhibited; also recorded: more effectively than compound 100
PP2A [1]; 3 h post treatment
  PP2A activity in brains as compared with vehicle: 51%
PP2A [1]; 6 h post treatment
  PP2A activity in brains as compared with vehicle: 63%
PP2A [1]; [7]
  Average Conc. (group of 3 mice): 1523.35
  Average Relative Activity (group, vehicle = 100): 61.81
  Conc. (phosphate, single reading, per mouse): 1696.01 and 1732.18 and 1420.80 and 1346.00 and 1604.74 and 1568.56
  Mean Conc. (per mouse): 1714.09 and 1383.40 and 1586.65
  Mean Conc. less IgG blank (per mouse): 1676.07 and 1345.37 and 1548.63
  Relative Conc. (per mouse, to vehicle): 0.77 and 0.62 and 0.71
  Relative PP2A Activity (per mouse, vehicle = 100): 68.00 and 54.59 and 62.83
PP2A [1]; [8]
  Average Conc. (group of 3 mice): 1413.26
  Average Relative Activity (group, vehicle = 100): 50.88
  Conc. (phosphate, single reading, per mouse): 1975.68 and 1782.39 and 1408.40 and 1380.55 and 1075.87 and 1084.82
  Mean Conc. (per mouse): 1879.04 and 1394.48 and 1080.34
  Mean Conc. less IgG blank (per mouse): 1841.01 and 1356.45 and 1042.32
  Relative Conc. (per mouse, to vehicle): 0.75 and 0.55 and 0.43
  Relative PP2A Activity (per mouse, vehicle = 100): 66.29 and 48.84 and 37.53
PP2A [1]; low dose IP, 6 h
  activity of PP2A in brains (statement): most potent
PP2A [2]; [15]
  PP2A activity in the liver of mice (statement): inhibited PP2A activity
PP2A [2]; [9]
  Average Conc. (group of 3 mice): 234.28
  Average Relative Activity (group, vehicle = 100): 55.78
  Conc. (phosphate, single reading, per mouse): 344.85 and 360.53 and 257.33 and 287.81 and 202.46 and 225.54
  Mean Conc. (per mouse): 352.69 and 272.57 and 214
  Mean Conc. less IgG blank (per mouse): 307.22 and 227.09 and 168.52
  Relative Conc. (per mouse, to vehicle): 0.73 and 0.54 and 0.4
  Relative PP2A Activity (per mouse, vehicle = 100): 73.15 and 54.07 and 40.13
PP2A [2]; [10]
  Average Conc. (group of 3 mice): 232.03
  Average Relative Activity (group, vehicle = 100): 52.2
  Conc. (phosphate, single reading, per mouse): 266.91 and 213.78 and 382.3 and 411.92 and 190.7 and 199.41
  Mean Conc. (per mouse): 240.34 and 397.11 and 195.06
  Mean Conc. less IgG blank (per mouse): 194.87 and 351.63 and 149.58
  Relative Conc. (per mouse, to vehicle): 0.44 and 0.79 and 0.34
  Relative PP2A Activity (per mouse, vehicle = 100): 43.84 and 79.11 and 33.65
PP2A [2]; high dose IP, 6 h post treatment
  activity of PP2A in livers as compared with vehicle (statement): significantly inhibited
PP2A [2]; [7]
  Average Conc. (group of 3 mice): 328.84
  Average Relative Activity (group, vehicle = 100): 78.3
PP2A [2]; [8]
  Average Conc. (group of 3 mice): 359.62
  Average Relative Activity (group, vehicle = 100): 80.9
[3]; [11]
  IC50: > 100 µM
[3]; [12]
  IC50: > 100 µM
[4]; [13]
  IC50: 92.2 µM
[4]; [14]
  IC50: 96.4 µM
Lung cancer (A549) cells
  IC50: > 100 µM
